The assay concerns BDF1 mice, Adenocarcinoma 755 s.c., tumor weight T/C. Kind of assay: NCI In Vivo Anticancer Drug Screen. Data for tumor model Adenocarcinoma 755 (subcutaneous) in B6D2F1 (BDF1) mice. To be noted: endpoint: mean tumor weight, higher = larger tumour. A digest of the protocol: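 Compound activity was tested in mice carrying transplanted tumors. Survival or tumor size was measured, and each value is the treated-group measurement divided by that of the vehicle-treated control group (T/C).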

Setting [1] is: dose: 15.0 mg/kg/injection, schedule: Q01DX011 (ip), vehicle: methylcellulose (MC).
[2] abbreviates: dose: 62.0 mg/kg/injection, schedule: Q01DX011 (ip), vehicle: methylcellulose (MC).
Setting [3] is: dose: 125.0 mg/kg/injection, schedule: Q01DX011 (ip), vehicle: methylcellulose (MC).
Where [4] appears, read: dose: 6.0 mg/kg/injection, schedule: Q01DX011 (ip), vehicle: carboxymethylcellulose (CMC).
Setting [5] is: dose: 100.0 mg/kg/injection, schedule: Q01DX011 (ip), vehicle: carboxymethylcellulose (CMC).

Values joined by “and” are separate entries in the source; they are usually repeats but may differ in a detail not shown here. Equal entries are not always repeated.

As usually defined, the T/C is the ratio of treated to control.

On to `OCn1cccn1`, for which the T/C runs as follows: (dose: 20.0 mg/kg/injection, schedule: Q01DX011 (ip), vehicle: other) 68 % of control; (dose: 20.0 mg/kg/injection, schedule: Q01DX011 (ip), vehicle: saline) 89 % of control; (dose: 40.0 mg/kg/injection, schedule: Q01DX011 (ip), vehicle: other) 23 % of control; (dose: 40.0 mg/kg/injection, schedule: Q01DX011 (ip), vehicle: saline) 45 % of control; (dose: 80.0 mg/kg/injection, schedule: Q01DX011 (ip), vehicle: other) 2 % of control; (dose: 80.0 mg/kg/injection, schedule: Q01DX011 (ip), vehicle: saline) 27 % of control. The T/C (dose: 160.0 mg/kg/injection, schedule: Q01DX011 (ip), vehicle: saline) is 2 % of control.
Regarding `CC(=O)[C@H]1CC[C@H]2[C@@H]3CCC4=CC(=O)C=C[C@]4(C)[C@H]3C(=O)C[C@]12C`, the T/C runs as follows: (dose: 66.0 mg/kg/injection, schedule: Q01DX011 (sc), vehicle: steriod suspending solution) 62 % of control and 74 % of control; (dose: 132.0 mg/kg/injection, schedule: Q01DX011 (sc), vehicle: steriod suspending solution) 37 % of control and 58 % of control; (dose: 264.0 mg/kg/injection, schedule: Q01DX011 (sc), vehicle: steriod suspending solution) 25 % of control and 44 % of control; (dose: 528.0 mg/kg/injection, schedule: Q01DX011 (sc), vehicle: steriod suspending solution) 28 % of control and 35 % of control.
For the molecule `CCCN1CCC(=O)NC1=S`, the T/C runs as follows: under setting [1], 81 % of control; (dose: 31.0 mg/kg/injection, schedule: Q01DX011 (ip), vehicle: methylcellulose (MC)) 64 % of control; under setting [2], 74 % of control; under setting [3], 93 % of control.
Take `FC(F)(F)c1nc(=S)c2[nH]cnc2[nH]1`: the T/C under setting [4] was 70 % of control; the T/C (dose: 25.0 mg/kg/injection, schedule: Q01DX011 (ip), vehicle: carboxymethylcellulose (CMC)) was 81 % of control; the T/C under setting [5] is 89 % of control.
As to `C[C@]12C=CC(=O)C=C1CC[C@H]1[C@@H]3C[C@@H](O)[C@](O)(C(=O)CO)[C@@]3(C)C[C@H](O)[C@@]12F`, the T/C was 98 % of control (dose: 1.5 mg/kg/injection, schedule: Q01DX011 (sc), vehicle: steriod suspending solution); 79 % of control (dose: 3.0 mg/kg/injection, schedule: Q01DX011 (sc), vehicle: steriod suspending solution); 77 % of control (dose: 3.12 mg/kg/injection, schedule: Q01DX011 (sc), vehicle: steriod suspending solution); 41 % of control (dose: 6.0 mg/kg/injection, schedule: Q01DX011 (sc), vehicle: steriod suspending solution); 32 % of control and 44 % of control and 53 % of control (dose: 12.5 mg/kg/injection, schedule: Q01DX011 (sc), vehicle: steriod suspending solution).
Consider `CC(=O)c1cccc(NC2C(N)C(NC(=O)N(C)C)(C(C)O)C(C)(O)C2(O)COC(=O)c2c(C)cccc2O)c1` (stereo not given), for which the T/C (dose: 0.25 mg/kg/injection, schedule: Q01DX011 (ip), vehicle: saline) is 36 % of control; the T/C (dose: 0.5 mg/kg/injection, schedule: Q01DX011 (ip), vehicle: saline) was 83 % of control; the T/C (dose: 1.0 mg/kg/injection, schedule: Q01DX011 (ip), vehicle: saline) was 67 % of control; the T/C (dose: 2.0 mg/kg/injection, schedule: Q01DX011 (ip), vehicle: saline) was 24 % of control.
Consider `CCCn1cnc2c(SCc3ccccc3Cl)nc(N)nc21`, for which the T/C by setting is: (dose: 0.78 mg/kg/injection, schedule: Q01DX011 (ip), vehicle: methylcellulose (MC)) 85 % of control; (dose: 1.56 mg/kg/injection, schedule: Q01DX011 (ip), vehicle: methylcellulose (MC)) 72 % of control; (dose: 3.0 mg/kg/injection, schedule: Q01DX011 (ip), vehicle: carboxymethylcellulose (CMC)) 70 % of control; (dose: 3.12 mg/kg/injection, schedule: Q01DX011 (ip), vehicle: methylcellulose (MC)) 62 % of control; under setting [4], 47 % of control; (dose: 6.25 mg/kg/injection, schedule: Q01DX011 (ip), vehicle: methylcellulose (MC)) 60 % of control. In addition, the T/C by setting is: (dose: 12.0 mg/kg/injection, schedule: Q01DX011 (ip), vehicle: carboxymethylcellulose (CMC)) 45 % of control; (dose: 12.5 mg/kg/injection, schedule: Q01DX011 (ip), vehicle: methylcellulose (MC)) 43 % of control; (dose: 24.0 mg/kg/injection, schedule: Q01DX011 (ip), vehicle: carboxymethylcellulose (CMC)) 17 % of control; (dose: 25.0 mg/kg/injection, schedule: Q01DX011 (ip), vehicle: methylcellulose (MC)) 7 % of control; (dose: 48.0 mg/kg/injection, schedule: Q01DX011 (ip), vehicle: carboxymethylcellulose (CMC)) 4 % of control; (dose: 96.0 mg/kg/injection, schedule: Q01DX011 (ip), vehicle: carboxymethylcellulose (CMC)) 2 % of control. Further, the T/C was 3 % of control (dose: 190.0 mg/kg/injection, schedule: Q01DX011 (ip), vehicle: carboxymethylcellulose (CMC)); 1 % of control (dose: 192.0 mg/kg/injection, schedule: Q01DX011 (ip), vehicle: carboxymethylcellulose (CMC)); 4 % of control (dose: 380.0 mg/kg/injection, schedule: Q01DX011 (ip), vehicle: carboxymethylcellulose (CMC)).
On to `Cc1ccccc1CNc1ncnc2[nH]ncc12`, for which the T/C is 79 % of control (dose: 5.0 mg/kg/injection, schedule: Q01DX011 (ip), vehicle: saline); 60 % of control (dose: 10.0 mg/kg/injection, schedule: Q01DX011 (ip), vehicle: saline); 29 % of control (dose: 25.0 mg/kg/injection, schedule: Q01DX011 (ip), vehicle: saline); 4 % of control (dose: 100.0 mg/kg/injection, schedule: Q01DX011 (ip), vehicle: saline); 9 % of control (dose: 125.0 mg/kg/injection, schedule: Q01DX011 (ip), vehicle: saline).
For the molecule `Nc1nc(SCc2ccccc2)c2ncn(C3CCCC3)c2n1`, the T/C (dose: 4.6 mg/kg/injection, schedule: Q01DX011 (ip), vehicle: carboxymethylcellulose (CMC)) was 79 % of control; the T/C (dose: 9.3 mg/kg/injection, schedule: Q01DX011 (ip), vehicle: carboxymethylcellulose (CMC)) was 70 % of control; the T/C (dose: 18.7 mg/kg/injection, schedule: Q01DX011 (ip), vehicle: carboxymethylcellulose (CMC)) is 69 % of control; the T/C (dose: 37.5 mg/kg/injection, schedule: Q01DX011 (ip), vehicle: carboxymethylcellulose (CMC)) is 24 % of control; the T/C (dose: 75.0 mg/kg/injection, schedule: Q01DX011 (ip), vehicle: carboxymethylcellulose (CMC)) was 11 % of control; the T/C (dose: 150.0 mg/kg/injection, schedule: Q01DX011 (ip), vehicle: carboxymethylcellulose (CMC)) is 2 % of control. The T/C was 1 % of control (dose: 300.0 mg/kg/injection, schedule: Q01DX011 (ip), vehicle: carboxymethylcellulose (CMC)) and 33 % of control (dose: 375.0 mg/kg/injection, schedule: Q01DX011 (ip), vehicle: carboxymethylcellulose (CMC)).
Regarding `Nc1nc(N)c2[nH]cnc2n1`, the T/C (dose: 17.49 mg/kg/injection, schedule: Q01DX011 (ip), vehicle: carboxymethylcellulose (CMC)) is 94 % of control; the T/C (dose: 17.62 mg/kg/injection, schedule: Q01DX011 (ip), vehicle: carboxymethylcellulose (CMC)) is 114 % of control; the T/C (dose: 34.98 mg/kg/injection, schedule: Q01DX011 (ip), vehicle: carboxymethylcellulose (CMC)) is 93 % of control; the T/C (dose: 35.25 mg/kg/injection, schedule: Q01DX011 (ip), vehicle: carboxymethylcellulose (CMC)) is 91 % of control; the T/C (dose: 69.95 mg/kg/injection, schedule: Q01DX011 (ip), vehicle: carboxymethylcellulose (CMC)) was 103 % of control; the T/C (dose: 70.5 mg/kg/injection, schedule: Q01DX011 (ip), vehicle: carboxymethylcellulose (CMC)) is 108 % of control. Where the note is “dose: 141.0 mg/kg/injection, schedule: Q01DX011 (ip), vehicle: carboxymethylcellulose (CMC)”, the T/C is 47 % of control.
On to `CCOc1ccc2nc(S(N)(=O)=O)sc2c1`, for which the T/C runs as follows: (dose: 50.0 mg/kg/injection, schedule: Q01DX011 (ip), vehicle: methylcellulose (MC)) 60 % of control; under setting [5], 23 % of control and 30 % of control; (dose: 100.0 mg/kg/injection, schedule: Q01DX011 (ip), vehicle: methylcellulose (MC)) 89 % of control; (dose: 200.0 mg/kg/injection, schedule: Q01DX011 (ip), vehicle: carboxymethylcellulose (CMC)) 13 % of control; (dose: 400.0 mg/kg/injection, schedule: Q01DX011 (ip), vehicle: methylcellulose (MC)) 19 % of control.
For the molecule `CCc1c(Cl)nc(N)nc1Nc1ccccc1Cl`, the T/C is, setting by setting: under setting [1], 105 % of control; under setting [2], 103 % of control; under setting [3], 101 % of control.

The record behind these values is PubChem BioAssay AID180 (DTP/NCI, 2004).
